According to paper PMC8287944, “5-Fluorouracil blocks quorum-sensing of biofilm-embedded methicillin-resistant Staphylococcus aureus in mice” (Nucleic Acids Research, 2021):
Like-named read-outs stand apart in the source and are kept apart here.

Experiments:
[1] = tested on: AI-2 production by HEK-293AI2 cells expressing MTAN and LuxS; experiment: HEK-293AI2 / V. harveyi (MM32) AI-2 detection platform (AI-2 production by engineered human cells); type: cell-based, human cells; MTAN and LuxS derived from E. coli; conditions: HEK-293AI2 cells exposed 24 h, AI-2 in supernatant read by V. harveyi MM32 bioluminescence
Protocol: LuxS (MF688636) and MTAN (MF688635) transgenes derived from E. coli were codon-optimized for stable expression in mammalian cells. For the generation of double stable HEK-293-derived cell line HEK-293AI2 transgenic for simultaneous constitutive PhEFIα-driven MTAN and PhCMV-driven LuxS-eYFP expression, 250,000 cells were first transfected with 2000 ng of pFS168 (PhEFIα-MTAN-pA) and selected in culture medium containing 20 μg/ml blasticidin (cat. no. ant-bl-1; InvivoGen, San Diego, CA, USA) for two weeks. […] After 17 days of selection in medium containing 200 μg/ml (w/v) zeocin (cat. no. ant-zn-1; Invivogen, San Diego, CA, USA) and 20 μg/ml blasticidin, resistant monoclonal cells (HEK-293sFS26cx) were obtained by limiting dilution cloning and screened for AI-2 activity in their supernatants. […] The cell line was regularly tested for the absence of mycoplasma.
20 μl of HEK-293AI2 cells (10^4 cells per well) were resuspended in 20 μl Dulbecco's modified Eagle's medium (DMEM; Thermo Fisher, Basel, Switzerland, low glucose, without phenol red, cat. no. 11880–028) supplemented with 4 mM L-glutamine (Thermo Fisher, Basel, Switzerland, cat. no. 25030-024), 30 μg/ml kanamycin and 1% FCS and seeded into a poly-L-lysine-coated Black Greiner clear-bottom 384-well plate (cat. no. 3845; Corning, New York, USA) using a Multidrop Combi Reagent Dispenser (cat. no. 5840300; Thermo Fisher, Basel, Switzerland). Cells were incubated for 20 h and then 20 nL of individual compounds (stock solution in 5 mM in DMSO) or controls (stock solutions of novobiocin, 10 mM in DMSO; staurosporin, 20 mM in DMSO) were transferred with Echo 550 liquid handler (Labcyte, San Jose, CA, USA) into the plate.
Compound-treated cells were cultivated for 24 hours and the cell culture supernatants (10 μl) were transferred to dry black polystyrene 384-well plates (Corning, New York, USA, cat. no. 3571). The AI-2 activity was quantified by adding 40 μl per 384-well of V. harveyi MM32 AI-2 reporter strain, diluted 1:500 in AB-Medium from a stationary overnight culture grown in Luria Marine (LM)-medium containing 20 g of NaCl, 10 g of Bacto Tryptone (Difco Laboratories), and 5 g of yeast extract (BBL) ([25]). Plates were sealed with BREATHseal™ (cat. no. 7.676 050; Greiner Bio-One, Frickenhausen, Germany) and incubated for 4 h at 30°C and 200 rpm on a Multitron Pro shaker (Infors, Bottmingen, Switzerland). Bioluminescence was measured on an Envision 2104 Multilabel plate reader (Perkin Elmer, Waltham, USA) with 1 s integration time. […] The initial hit inclusion criteria were a toxicity score of less than 50% and an AI-2 activity reduction below the average of all compound activity three times the standard deviation (-49.39% of activity).
(§1) Figure 2. Cell-based primary screen for AI-2 biosynthesis inhibitors. (A) Detailed assay protocol of the primary screen using engineered mammalian cells to identify inhibitors of quorum sensing. […] Aliquots of 10 μl of culture supernatants were transferred to black-bottomed assay plates and mixed with 40 μl of V. harveyi MM32 (AI-2 biosensor). AI-2-induced bioluminescence was measured 4 h later and normalized against the controls. In a secondary screen, the dose-response relationships of hit compounds are analyzed. To simultaneously assess effects on cell viability, compound-treated cells were supplemented with PrestoBlue and incubated for 1 h prior to resorufin fluorescence quantification. (B) Z’-evaluation of the AI-2 inhibitor assay.

MTAN = conditions: cited from earlier work; for Ki: read-out: Ki (reported, in vitro)
HEK-293AI2 cells = type: cell-based, human; conditions: human, 5 µM
Protocol: To monitor viable cells with active metabolism, we employed a fast resazurin assay. […] To calculate the relative cell viability, the fluorescence of DMSO-treated cells was set to 100%.
as §1, with “assay. […] Bioactivity and viability are calculated as percentages, based on the positive control value (taken as 100%) and negative control value (taken as 0%). […] Data points in (C) represent means of biological duplicates.” for “assay.”

V. harveyi (BB170) = experiment: V. harveyi BB170 growth (OD600 after 24 h); type: cell-based, Vibrio harveyi; set-up: TC50 (decrease of V. harveyi growth): unit not given beside the values; conditions: V. harveyi BB170, OD600 after 24 h
Protocol: The test strain V. harveyi BB170 was grown overnight in Luria Marine (LM)-medium ([25]). The culture was 1:500 diluted in AB-medium (0.3 M NaCl, 10 mM potassium phosphate, 1 mM L-arginine, […], 1% glycerol) the next day, and then challenged with various chemical compounds. After 5 h of shaking at 200 rpm at 30°C, the bioluminescence of BB170 was quantified on a GENios Pro plate reader (Tecan, Männedorf, Switzerland).
Figure 3. Bioactivity of hit candidates against Vibrio harveyi. Effect on bacterial growth. V. harveyi (BB170) was grown in the presence of individual compounds (A–H) for 5 h and the bioluminescence (green circles) was quantified. After a total of 24 h, bacterial growth (+) was evaluated by measuring the optical density (OD600). The gray translucent background in (C) represents the narrow range within which the compound reduces bioluminescence without affecting growth.

SE 1457 wild type = experiment: AI-2 activity of SE 1457 wild type; type: cell-based, Staphylococcus epidermidis; conditions: 1 μM DPD with increasing 5-FU concentrations, 3 h
Protocol: (§2) To confirm that the phenotype could be restored, 1 μM synthetic (S)-4,5-dihydroxy-2,3-pentanedione (DPD) (Biosynth Carbosynth, Staad, Switzerland) was used. After 3 h under static conditions at 37°C, the supernatant was analysed for AI-2 activity with V. harveyi (MM32).
Supplementary Figure 4 | Bioactivity of 5-FU against Staphylococcus epidermidis (SE). a) Quorum-sensing-associated AI-2 activity of SE 1457 grown for 3 h in the presence of different 5-FU concentrations (note log scale). b) Reversing effect of 1 µM DPD on the AI-2-reducing action of 5-FU (dashed line indicates AI-2 baseline of SE 1457 without 5-FU). Values represent 3 biological replicates expressed as mean ± SD (*, p < 0.05; **, p < 0.01).

MRSA ATCC 43300 [2] = experiment: AI-2 activity of MRSA ATCC 43300; type: cell-based, Staphylococcus aureus; conditions: 1 μM DPD
Protocol: as §2
Figure 4. Bioactivity of 5-FU against MRSA ATCC 43300. (A) Quorum sensing-associated AI-2 activity of MRSA 43300 grown for 3 h with different 5-FU concentrations. (B) Effect of different 5-FU concentrations on MRSA 43300 growth. (C) Interference with biofilm formation. (D) Effect on adherent MRSA 43300. Data points represent three biological replicates expressed as mean ± SD (**P < 0.01; ***P < 0.001; ****P < 0.0001).
Figure 5. Phenotype restoration with synthetic AI-2 supplementation. AI-2 activity of MRSA ATCC 43300 was evaluated with and without 1 μM DPD in the presence of different 5-FU concentrations. The dashed line indicates the baseline level of AI-2 of MRSA ATCC 43300 in the absence of 5-FU. Values represent 3 biological replicates expressed as mean ± SD (**P < 0.01; ****P < 0.0001).

MRSA ATCC 43300 [3] = experiment: Murine tissue cage (foreign-body) infection model, prophylaxis; type: in vivo, Staphylococcus aureus; conditions: C57BL/6 mice
Protocol: To evaluate the prophylactic efficacy of 5-FU against MRSA infection, we used our murine model of foreign-body infection, which closely mimics human implant-associated infections. This model of foreign-body infection ([26],[27]) was established with the approval of the Kantonale Veterinaeramt Basel-Stadt, Switzerland (permit no. 1710). Experiments were conducted according to the regulations of Swiss veterinary law and performed in the animal house of the Department of Biomedicine, University Hospital Basel, Switzerland. Healthy wild-type female C57BL/6 mice at 13 weeks of age (JanvierLabs, France) kept under specific pathogen-free conditions (biosafety level 2) were anesthetized, followed by the subcutaneous implantation of sterile cylindrical Teflon tissue cages (8.5 × 1 × 30 mm; volume: 1.9 ml) with 130 regularly spaced holes (Angst + Pfister AG, Zurich, Switzerland). They were housed in a 12 hr light/dark cycle (light from 7 am to 7 pm) in a temperature-controlled room (24°C) with free access to regular mice chow and water. Mice were randomly assigned to experimental groups, which were not involved in previous procedures. The mice were randomized into groups, which were treated as follows: saline (untreated growth control; n = 7), saline with 5.2844 mg/kg DPD (n = 4), 50 mg/kg daptomycin (DAP) (Novartis, Basel, Switzerland) (n = 11), 10 mg/kg 5-FU with and without 50 mg/kg DAP (each n = 8), 40 mg/kg 5-FU with or without 50 mg/kg DAP (n = 16 and n = 13, respectively), 40 mg/kg 5-FU with 1 μM DPD (n = 6), or 40 mg/kg 5-FU with 50 mg/kg DAP and 5.2844 mg/kg DPD (n = 8). DAP was given intraperitoneally immediately before implantation, and 5-FU and DPD was given immediately after implantation directly into the lumen of the cage. Afterwards, the cages were infected with 965 CFU of MRSA 43300. At 2 days post-infection, tissue cage fluid was collected, and the planktonic bacterial load was evaluated by plating on blood agar plates. In additional, mice were sacrificed and the tissue cages were explanted under aseptic conditions. The explanted tissue cages were washed twice with phosphate-buffered saline followed by 30 s vortexing, sonication for 3 min at 130 W and another 30 s vortexing to release adherent bacteria from the biofilm. Quantification of adherent bacteria was performed by plating appropriated dilutions on blood agar plates. To determine the prevention rate, the presence of any re-growth of MRSA was examined by further incubation of the cage in tryptic soy broth (TSB) for 48 h at 37°C. MRSA re-growth represents therapy failure, and the prevention rate was defined as the percentage of cages without growth in each treatment group.
Figure 6. Prophylactic effect of 5-FU against MRSA ATCC 43300 in a murine tissue cage infection model. Read-outs were obtained two days after infection with 965 CFU/cage and treatment with saline, saline with 1 μM AI-2, 50 mg/kg daptomycin (DAP), 10 mg/kg 5-FU with or without 50 mg/kg DAP, 40 mg/kg 5-FU with or without 50 mg/kg DAP or 40 mg/kg 5-FU with 50 mg/kg DAP and 5.2844 mg/kg DPD, as indicated below the panels. (A) Effect on planktonic MRSA 43300 two days post-infection. (B) Effect on adherent MRSA after explantation and sonication. (C) Prevention rate. Values in (A) and (B) are median ± IQR and those in (C) are % ([…]; **P < 0.001; ****P < 0.0001; ns, not significant). TEXT PRINTED IN THE PICTURE: (C) DAP: prevention rate (%): 18 | (C) DAP + 5-FU (10): prevention rate (%): 75 | (C) DAP + 5-FU (40): prevention rate (%): 94 | (C) DAP + 5-FU (40) + DPD: prevention rate (%): 12.5 DOUBTS OF THE COPYIST ABOUT THIS PICTURE: Panel C, DAP, prevention rate: 18 or 16 (small print) / Panel C, DAP + 5-FU (10), prevention rate: 75 or 76 (small print) / Panel C: which treatment belongs to each bar was read from the small +/- grid under the plot, so the column alignment is not fully certain

SMILES: Nc1ncnc2c([C@@H]3O[C@H](CO)[C@@H](O)[C@H]3O)[nH]nc12 [Formycin]
- IC50 ([1]; Homo sapiens, 24 h): 2110 nM
- Ki (MTAN; competitive MTAN inhibition): 10000 nM
- IC50 (MTAN; competitive MTAN inhibition, read-out: Reported IC50 (in vitro)): 57000 nM

SMILES: CSC[C@H]1CN(Cc2c[nH]c3c(N)ncnc23)C[C@@H]1O [MT-DADMe-ImmA]
- IC50 [1]: 170 nM
- Ki (MTAN; MTAN inhibition): 0.002 nM

SMILES: Nc1nc(Cl)nc2c1ncn2[C@@H]1O[C@H](CO)[C@@H](O)[C@@H]1F [Clofarabine]
- IC50 ([1]; Homo sapiens, 24 h): 160 nM
- Viability of Ctrl (%) (HEK-293AI2 cells): 15.42%
- TC50 (decrease of V. harveyi growth) (V. harveyi (BB170)): 4.4 × 10^−7

SMILES: C[C@H]1O[C@@H](n2cc(F)c(=O)[nH]c2=O)[C@H](O)[C@@H]1O [Doxifluridine]
- IC50 ([1]; Homo sapiens, 24 h): 240 nM
- Viability of Ctrl (%) (HEK-293AI2 cells): –0.0725%

SMILES: CC(=O)C(=O)[C@@H](O)CO [DPD, (S)-4,5-dihydroxy-2,3-pentanedione]
- AI-2 activity of SE 1457 with DPD added to 5-FU (SE 1457 wild type): AI-2 activity returned almost to baseline
- Baseline AI-2 activity of MRSA 43300 (MRSA ATCC 43300 [2]): little influence
- AI-2 activity of 5-FU-challenged MRSA supplemented with DPD (MRSA ATCC 43300 [2]; MRSA ATCC 43300): counteracted the effect of 5-FU
- Effect of DPD on prevention rate (MRSA ATCC 43300 [3]; DPD co-administered with 5-FU and DAP): decreased the prevention rate to the level observed for DAP monotherapy
- Effect on biofilm / adherent MRSA (MRSA ATCC 43300 [3]; prophylactic treatment, explanted cages 2 days post-infection): reversed the 5-FU-dependent inhibition
- Effect on planktonic MRSA infection (MRSA ATCC 43300 [3]; prophylactic treatment, tissue cage fluid 2 days post-infection): reversed the 5-FU-dependent inhibition

SMILES: O=c1[nH]c(=O)n([C@H]2C[C@H](O)[C@@H](CO)O2)cc1F [Floxuridine]
- IC50 ([1]; Homo sapiens, 24 h): 770 nM
- Viability of Ctrl (%) (HEK-293AI2 cells): –22.28%
